In patent US20210308089A1, “METHODS OF TREATING AND/OR PREVENTING VIRAL INFECTIONS AND/OR DISEASES CAUSED BY VIRUSES IN A SUBJECT IN NEED THEREOF” (priority 2020, published 2021):
Read-outs that look alike come from different tables or passages of the source.

Test system: patients of the REDUCE-IT and earlier EPA placebo-controlled trials
Type: in vivo, human
Conditions: for Placebo-Adjusted % Change / ARR / NNT / Risk Ratio (95% CI): R-I
[1] = Hematocrit shift: normal to high (Day 120)
[2] = Hematocrit shift: normal to high (Day 360)
[3] = Hematocrit shift: normal to high (Day 720)
[4] = Hematocrit shift: normal to high (Day 1080)
[5] = Hematocrit shift: normal to high (Day 1440)
[6] = Hematocrit shift: normal to high (Day 1800)
[7] = Hematocrit shift: normal to low (Day 120)
[8] = Hematocrit shift: normal to low (Day 360)
[9] = Hematocrit shift: normal to low (Day 720)
[10] = Hematocrit shift: normal to low (Day 1080)
[11] = Hematocrit shift: normal to low (Day 1440)
[12] = Hematocrit shift: normal to low (Day 1800)
[13] = Hemoglobin shift: normal to high (Day 120)
[14] = Hemoglobin shift: normal to high (Day 360)
[15] = Hemoglobin shift: normal to high (Day 720)
[16] = Hemoglobin shift: normal to high (Day 1080)
[17] = Hemoglobin shift: normal to high (Day 1440)
[18] = Hemoglobin shift: normal to high (Day 1800)
[19] = Hemoglobin shift: normal to low (Day 120)
[20] = Hemoglobin shift: normal to low (Day 360)
[21] = Hemoglobin shift: normal to low (Day 720)
[22] = Hemoglobin shift: normal to low (Day 1080)
[23] = Hemoglobin shift: normal to low (Day 1440)
[24] = Hemoglobin shift: normal to low (Day 1800)

CC/C=C\C/C=C\C/C=C\C/C=C\C/C=C\CCCC(=O)OCC [icosapent ethyl, eicosapentaenoic acid ethyl ester]
Placebo-Adjusted % Change (Hematocrit (Day 360)): +.78%
Placebo-Adjusted % Change (Hematocrit (Day 720)): +1.28%
Placebo-Adjusted % Change (Hematocrit (Day 1080)): +1.59%
Placebo-Adjusted % Change (Hematocrit (Day 1440)): +1.86%
ARR [1]: 0.4%
NNT [1]: −234
Risk Ratio (95% CI) [1]: 1.507 (0.952 to 2.386) −2
ARR [2]: 0.3%
NNT [2]: −364
Risk Ratio (95% CI) [2]: 1.273 (0.811 to 1.999) −2
ARR [3]: 0.2%
NNT [3]: −566
Risk Ratio (95% CI) [3]: 1.181 (0.724 to 1.927) −1
ARR [4]: 0.4%
NNT [4]: −282
Risk Ratio (95% CI) [4]: 1.433 (0.826 to 2.487) −2
ARR [5]: 0.7%
NNT [5]: −138
Risk Ratio (95% CI) [5]: 2.208 (1.155 to 4.221) −3
ARR [6]: 0.3%
NNT [6]: −354
Risk Ratio (95% CI) [6]: 1.420 (0.582 to 3.462) −2
ARR [7]: −0.4%
NNT [7]: 228
Risk Ratio (95% CI) [7]: 0.828 (0.612 to 1.120) 1
ARR [8]: −0.6%
NNT [8]: 158
Risk Ratio (95% CI) [8]: 0.784 (0.583 to 1.054) 2
ARR [9]: −1.1%
NNT [9]: 90
Risk Ratio (95% CI) [9]: 0.747 (0.579 to 0.964) 2
ARR [10]: −2.2%
NNT [10]: 45
Risk Ratio (95% CI) [10]: 0.607 (0.469 to 0.785) 2
ARR [11]: −2.1%
NNT [11]: 47
Risk Ratio (95% CI) [11]: 0.650 (0.500 to 0.845) 2
ARR [12]: −0.9%
NNT [12]: 111
Risk Ratio (95% CI) [12]: 0.859 (0.627 to 1.179) 1
Placebo-Adjusted % Change (Hemoglobin (Day 120)): +.53%
Placebo-Adjusted % Change (Hemoglobin (Day 360)): +1%
Placebo-Adjusted % Change (Hemoglobin (Day 720)): +1.51%
Placebo-Adjusted % Change (Hemoglobin (Day 1080)): +2.09%
Placebo-Adjusted % Change (Hemoglobin (Day 1440)): +2.36%
ARR [13]: 0.3%
NNT [13]: −313
Risk Ratio (95% CI) [13]: 1.668 (0.915 to 3.042) −2
ARR [14]: −0.1%
NNT [14]: 961
Risk Ratio (95% CI) [14]: 0.908 (0.571 to 1.442) 1
ARR [15]: 0.2%
NNT [15]: −491
Risk Ratio (95% CI) [15]: 1.144 (0.760 to 1.721) −1
ARR [16]: 1.0%
NNT [16]: −103
Risk Ratio (95% CI) [16]: 2.241 (1.330 to 3.778) −3
ARR [17]: 0.7%
NNT [17]: −145
Risk Ratio (95% CI) [17]: 1.829 (1.036 to 3.229) −3
ARR [18]: 0.4%
NNT [18]: −240
Risk Ratio (95% CI) [18]: 1.383 (0.686 to 2.788) −2
ARR [19]: 0.0%
NNT [19]: −2370
Risk Ratio (95% CI) [19]: 1.013 (0.787 to 1.303) −1
ARR [20]: −0.7%
NNT [20]: 134
Risk Ratio (95% CI) [20]: 0.828 (0.652 to 1.051) 1
ARR [21]: −1.1%
NNT [21]: 93
Risk Ratio (95% CI) [21]: 0.815 (0.657 to 1.011) 1
ARR [22]: −2.3%
NNT [22]: 44
Risk Ratio (95% CI) [22]: 0.703 (0.570 to 0.868) 2
ARR [23]: −2.7%
NNT [23]: 37
Risk Ratio (95% CI) [23]: 0.685 (0.553 to 0.849) 2
ARR [24]: −1.5%
NNT [24]: 67
Risk Ratio (95% CI) [24]: 0.827 (0.630 to 1.085) 1
ARR (Lymphocytes: PCS High >45%): 2.7%
NNT (Lymphocytes: PCS High >45%): −38
Risk Ratio (95% CI) (Lymphocytes: PCS High >45%): 1.543 (1.296 to 1.838) −2
ARR (Lymphocytes: PCS Low <30%): −6.3%
NNT (Lymphocytes: PCS Low <30%): 16
Risk Ratio (95% CI) (Lymphocytes: PCS Low <30%): 0.924 (0.904 to 0.945) 1
Placebo-Adjusted % Change (Neutrophils (Day 120)): +1.11%
Placebo-Adjusted % Change (Neutrophils (Day 360)): −3%
Placebo-Adjusted % Change (Neutrophils (Day 720)): −4.7%
Placebo-Adjusted % Change (Neutrophils (Day 1080)): −4.52%
Placebo-Adjusted % Change (Neutrophils (Day 1440)): −3.06%
Placebo-Adjusted % Change (Neutrophils/Leukocytes (Ratio) (Day 120)): −2.06%
Placebo-Adjusted % Change (Neutrophils/Leukocytes (Ratio) (Day 360)): −3.87%
Placebo-Adjusted % Change (Neutrophils/Leukocytes (Ratio) (Day 720)): −4.61%
Placebo-Adjusted % Change (Neutrophils/Leukocytes (Ratio) (Day 1080)): −4.21%
Placebo-Adjusted % Change (Neutrophils/Leukocytes (Ratio) (Day 1440)): −4.1%
AR: ALP >2x ULN (AE table) (human, in vivo): 0.6%
AR: ALP > ULN (AE table) (human, in vivo): 9.8%
AR: Blood uric acid increased (AE table) (human, in vivo): 1.0%
AR: Gout (AE table) (human, in vivo): 3.6%
AR: Hepatomegaly (AE table) (human, in vivo): 0.4%
AR: Hyperuricemia (AE table) (human, in vivo): 0.6%
AR: Spleen disorders (AE table) (human, in vivo): 0.3%
AR: Splenomegaly (AE table) (human, in vivo): 0.2%
ARR: ALP >2x ULN (AE table) (human, in vivo): −0.3%
ARR: ALP > ULN (AE table) (human, in vivo): −4.5%
ARR: Blood uric acid increased (AE table) (human, in vivo): 0.1%
ARR: Gout (AE table) (human, in vivo): 1.1%
ARR: Hepatomegaly (AE table) (human, in vivo): −0.4%
ARR: Hyperuricemia (AE table) (human, in vivo): 0.3%
ARR: Spleen disorders (AE table) (human, in vivo): −0.3%
ARR: Splenomegaly (AE table) (human, in vivo): −0.1%
Lab Reported Events: % of subjects (human, in vivo): (79.9) %
Lab Reported Events: number of subjects (human, in vivo): 3269
NNT: ALP >2x ULN (AE table) (human, in vivo): 341
NNT: ALP > ULN (AE table) (human, in vivo): 22
NNT: Blood uric acid increased (AE table) (human, in vivo): −680
NNT: Gout (AE table) (human, in vivo): −93
NNT: Hepatomegaly (AE table) (human, in vivo): 256
NNT: Hyperuricemia (AE table) (human, in vivo): −292
NNT: Spleen disorders (AE table) (human, in vivo): 372
NNT: Splenomegaly (AE table) (human, in vivo): 682
Platelet Count: PCS High >500 × 10^3/uL (human, in vivo): 16 (0.4%) n(%)
Platelet Count: PCS High >500 × 10^3/uL: % of subjects (human, in vivo): (0.4) %
Platelet Count: PCS High >500 × 10^3/uL: number of subjects (human, in vivo): 16
Platelet Count: PCS Low <100 × 10^3/uL (human, in vivo): 19 (0.5%) n(%)
Platelet Count: PCS Low <100 × 10^3/uL: % of subjects (human, in vivo): (0.5) %
Platelet Count: PCS Low <100 × 10^3/uL: number of subjects (human, in vivo): 19
Risk Ratio (95% CI): ALP >2x ULN (AE table) (human, in vivo): 0.600 (0.335 to 1.075) 2
Risk Ratio (95% CI): ALP > ULN (AE table) (human, in vivo): 0.624 (0.545 to 0.714) 2
Risk Ratio (95% CI): Blood uric acid increased (AE table) (human, in vivo): 1.154 (0.753 to 1.768) −1
Risk Ratio (95% CI): Gout (AE table) (human, in vivo): 1.347 (1.075 to 1.687) −2
Risk Ratio (95% CI): Hepatomegaly (AE table) (human, in vivo): 0.304 (0.131 to 0.709) 4
Risk Ratio (95% CI): Hyperuricemia (AE table) (human, in vivo): 1.737 (0.990 to 3.050) −3
Risk Ratio (95% CI): Spleen disorders (AE table) (human, in vivo): 0.353 (0.139 to 0.894) 4
Risk Ratio (95% CI): Splenomegaly (AE table) (human, in vivo): 0.400 (0.126 to 1.275) 3
WBC Differential (Lymphocytes): PCS High >45%: % of subjects (human, in vivo): (7.4) %
WBC Differential (Lymphocytes): PCS High >45%: number of subjects (human, in vivo): 301
WBC Differential (Lymphocytes): PCS Low <30%: % of subjects (human, in vivo): (75.0) %
WBC Differential (Lymphocytes): PCS Low <30%: number of subjects (human, in vivo): 3067
WBC Differential (Monocytes): PCS High >6% (human, in vivo): 3101 (78.0%) n(%)
